Source: patent publication US6664224B2, “Quaternary ammonium salt and process for the preparation thereof” (priority 2000, dated 2003)

Assays:
[1] = tested on: Bacillus substilis ATCC 6633; experiment: Minimum bactericidal concentration (MBC) against bacteria; format: cell-based, Bacillus subtilis; conditions: contact 30° C. 30 minutes, culture 37° C. 24 hours
Method: (§1) A bacteria solution in the initial stage of logarithmic productive phase which had been adjusted with a nutrient broth according to an ordinary sterilized water dilution method such that the concentration of bacterial suspension reached 10^6 cell/ml was brought into contact with chemical solutions having concentrations which vary stepwise at a temperature of 30° C. for 30 minutes, and then transplanted to a nutrient broth where it was then allowed to stand at a temperature of 37° C. for 24 hours for culture. The nutrient broth was then examined to see if the proliferation of bacteria occurred. Thus, MBC was determined.
(§2) Five kinds of gram-negative bacteria and four kinds of gram-positive bacteria were used as sample bacteria.
(§3) BAMP-6 (Example 12), BAMD-6,8 (Example 13), BAMT-6 (Example 17) and benzalkonium chloride (Comparative Example 1) were determined for MBC value against 5 kinds of gram-negative bacteria and 4 kinds of gram-positive bacteria in the same manner as in Test Example 1.

E. coli = experiment: Anti-septic power test (USP XX); format: cell-based, Escherichia coli; conditions: test sample 0.002 wt %
Method: (§4) Solutions prepared according to the formulation set forth in Tables 10 and 11 below were subjected to anti-septic power test according to the method defined in Pharmacopoeia of the United States XX, 873 (1980). The solutions thus tested were then observed for anti-septic power after 1 hour, 4 hours, 24 hours, 7 days, 14 days, 21 days and 28 days. As test microorganisms, E. coli, P. auru. and S. Aureus were used as bacteria and A. niger and C. albicans were used as fungi. 4BAMP-6C and benzalkonium chloride were used as test samples.

[2] = tested on: Staphylococcus aureus IFO 12732; experiment: Minimum bactericidal concentration (MBC) against bacteria; format: cell-based; conditions: contact 30° C. 30 minutes, culture 37° C. 24 hours
Method: as §1, §2, §3

Proteus rettgeri NIT 96 = experiment: as above; format: cell-based; conditions: contact 30° C. 30 minutes, culture 37° C. 24 hours
Method: as §1, §2, §3

[3] = tested on: Klebsiella pneumoniae ATCC 13883; experiment: as above; format: cell-based; conditions: contact 30° C. 30 minutes, culture 37° C. 24 hours
Method: as §1, §2, §3

[4] = tested on: Escherichia coli K12 OUT 8401; experiment: as above; format: cell-based; conditions: contact 30° C. 30 minutes, culture 37° C. 24 hours
Method: as §1, §2, §3

Bacillus cereus IFO 3001 = experiment: as above; format: cell-based; conditions: contact 30° C. 30 minutes, culture 37° C. 24 hours
Method: as §1, §2, §3

[5] = tested on: Escherichia coli K12 W 3110; experiment: as above; format: cell-based; conditions: contact 30° C. 30 minutes, culture 37° C. 24 hours
Method: as §1, §2, §3

[6] = tested on: Pseudomonas aeruginosa ATCC 27583; experiment: as above; format: cell-based; conditions: contact 30° C. 30 minutes, culture 37° C. 24 hours
Method: as §1, §2, §3

[7] = tested on: Bacillus subtilis IFO 3134; experiment: as above; format: cell-based; conditions: contact 30° C. 30 minutes, culture 37° C. 24 hours
Method: as §1, §2, §3

A. niger = experiment: Anti-septic power test (USP XX); format: cell-based, Aspergillus niger; conditions: test sample 0.002 wt %
Method: as §4

C. albicans = experiment: Anti-septic power test (USP XX); format: cell-based, Candida albicans; conditions: test sample 0.002 wt %
Method: as §4

S. aureus = experiment: Anti-septic power test (USP XX); format: cell-based, Staphylococcus aureus; conditions: test sample 0.002 wt %
Method: as §4

[8] = tested on: Staphylococcus aureus IFO 12732; experiment: MIC by agar plate dilution method; format: cell-based; conditions: S. aureus, 37° C. 24 hours
Method: (§5) MIC value was determined by an agar plate dilution method according to the Law of Japanese Society of Chemotherapy. In some detail, a bacteria solution in stationary state which had been adjusted with a nutrient broth such that the concentration of bacterial suspension reached 10^6 cell/ml was added to agar culture media containing chemical solutions having concentrations which vary in two stages where it was then allowed to stand at a temperature of 37° C. for 24 hours for culture. The bacteria solution was then examined to see if the proliferation of bacteria occurred. Thus, MIC was determined.
(§6) The following three kinds of bacteria were used as sample bacteria:
Staphylococcus aureus IFO 12732 (S. aureus)

P. aeruginosa = experiment: Anti-septic power test (USP XX); format: cell-based, Pseudomonas aeruginosa; conditions: test sample 0.002 wt %
Method: as §4

[9] = tested on: Escherichia coli K12 W 3110; experiment: MIC by agar plate dilution method; format: cell-based; conditions: E. coli, 37° C. 24 hours
Method: as §5, §6
Escherichia coliK12 W 3110 (E. coli);

[10] = tested on: Escherichia coli K12 W 3110; experiment: Minimum development inhibiting concentration (MIC) against bacteria, broth dilution method; format: cell-based; conditions: 37° C. 24 hours
Method: A bacteria solution in stationary state which had been adjusted with a nutrient broth according to an ordinary broth dilution method such that the concentration of bacterial suspension reached 10^6 cell/ml was added to chemical solutions having concentrations which vary stepwise where it was then allowed to stand at a temperature of 37° C. for 24 hours for culture. The bacteria solution was then examined to see if the proliferation of bacteria occurred. Thus, MIC was determined.
Escherichia coli K12 W 3110 was used as a sample bacterium. Compounds obtained in Examples 1 to 9 and benzalkonium chloride prepared in Comparative Example 1 were used as test samples.
The compounds obtained in Examples 10 to 19 and benzalkonium chloride were determined for MIC value against Escherichia coli K12 W 3110 in the same manner as in Test Example 3.

[11] = tested on: Candida albicans ATCC10231; experiment: Minimum development inhibiting concentration (MIC) against fungi; format: cell-based; conditions: C. albicans; spore solution, 27° C. 1 week
Method: (§7) A sample fungus which had been pre-cultured was diluted with a wetting agent-containing sterilized water according to an ordinary broth dilution method to prepare a spore solution. 1 ml of the spore solution was then mixed with 1 ml of each of chemical solutions having concentrations which vary stepwise. The mixture was then cultured at a temperature of 27° C. in an incubator for 1 week. The culture was then examined for turbidity to see if the proliferation of fungus occurred. The minimum concentration at which no turbidity occurs was defined to be MIC.
(§8) Aspergillus niger IFO 6431 (A. niger) and Candida albicans ATCC10231 (C. albicans) were used as sample microorganisms.

[12] = tested on: Aspergillus niger IFO 6431; experiment: as above; format: cell-based; conditions: A. niger; spore solution, 27° C. 1 week
Method: as §7, §8

[13] = Formulation 1 (chondroitin sodium sulfate 1 wt %)

Substance | MBC [1] [ppm] | time at which the desired anti-septic effect was confirmed (E. coli; [13]) | time at which the desired anti-septic effect was confirmed (E. coli; Formulation 2 (taurin 1 wt %)) | MBC [2] [ppm] | MBC (Proteus rettgeri NIT 96) [ppm] | MBC [3] [ppm] | MBC [4] [ppm] | MBC (Bacillus cereus IFO 3001) [ppm] | MBC [5] [ppm] | MBC [6] [ppm] | MBC [7] [ppm] | time at which the desired anti-septic effect was confirmed (A. niger; [13]) [days] | time at which the desired anti-septic effect was confirmed (A. niger; Formulation 2 (taurin 1 wt %)) [days] | time at which the desired anti-septic effect was confirmed (C. albicans; [13]) [days] | time at which the desired anti-septic effect was confirmed (C. albicans; Formulation 2 (taurin 1 wt %)) [days] | time at which the desired anti-septic effect was confirmed (S. aureus; [13]) | time at which the desired anti-septic effect was confirmed (S. aureus; Formulation 2 (taurin 1 wt %)) | MIC [8] [ppm] | time at which the desired anti-septic effect was confirmed (P. aeruginosa; [13]) | time at which the desired anti-septic effect was confirmed (P. aeruginosa; Formulation 2 (taurin 1 wt %)) | further results
1,4-bis(N,N-dihexyl-N-methylammoniomethyl)phenylene dichloride [Example 4BAMP-6C] | <2 | 1 h | 1 h | <2 | <2 | <2 | 8 | 4 | 16 | 16 | <2 | 7 | 14 | 7 | 7 | 1 h | 1 h | <2 | 1 h | 1 h | MIC [9]: 8 ppm; MIC Escherichia coli K12 W 3110 [10]: 2 ppm; MIC [11]: 4 ppm; MIC [12]: 16 ppm
benzalkonium chloride [reference compound] | 4 | 24 hrs. hr. | 24 hrs. hr. | <2 | 16 | 8 | 8 | 4 | 16 | 32 | 4 | 28 | 28 | 21 | 21 | 4 hrs. hr. | 4 hrs. hr. | 16 | 24 hrs. hr. | 24 hrs. hr. | MIC [9]: 32 ppm; MIC Escherichia coli K12 W 3110 [10]: 8 ppm; MIC [11]: 16 ppm; MIC [12]: 32 ppm
